Reference: ChEMBL document CHEMBL1201862, “PubChem BioAssay data set” (2004)
Active and inactive are the calls of the source.

What was measured:
Format in all cases: functional
Vero = test: West Nile virus antiviral activity, cell-based, CPE readout (AID 1621); details: Chlorocebus sabaeus
[1] = molecular target: T1, High affinity choline transporter 1 (Homo sapiens, UniProt Q9GZV3); test: CHT inhibitors, dose response, cell-based, 5-point CRC, membrane potential dye (AID 504840)
T1 sequence (Q9GZV3 whole entry): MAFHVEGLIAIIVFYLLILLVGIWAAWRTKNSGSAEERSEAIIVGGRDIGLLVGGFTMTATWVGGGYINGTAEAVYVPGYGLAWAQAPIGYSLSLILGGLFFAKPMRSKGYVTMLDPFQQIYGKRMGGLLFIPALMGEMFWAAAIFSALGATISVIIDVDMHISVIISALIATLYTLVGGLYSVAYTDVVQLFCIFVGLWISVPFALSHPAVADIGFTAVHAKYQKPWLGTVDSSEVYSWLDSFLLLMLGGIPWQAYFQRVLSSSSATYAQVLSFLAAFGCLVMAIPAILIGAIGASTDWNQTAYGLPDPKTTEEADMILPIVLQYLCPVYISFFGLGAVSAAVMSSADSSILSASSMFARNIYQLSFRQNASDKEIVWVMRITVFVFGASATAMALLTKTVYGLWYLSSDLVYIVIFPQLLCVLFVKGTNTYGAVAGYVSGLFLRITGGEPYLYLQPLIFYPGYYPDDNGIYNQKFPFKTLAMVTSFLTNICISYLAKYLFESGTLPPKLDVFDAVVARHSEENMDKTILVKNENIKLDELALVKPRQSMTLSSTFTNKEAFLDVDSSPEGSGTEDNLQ

[2] = molecular target: T1, High affinity choline transporter 1; test: CHT inhibitors, dose response, cell-based, 10-point CRC, membrane potential dye (AID 588401);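 note: membrane potential dye fluorescence of choline-evoked depolarization via CHT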
[3] = HeLa cell cytotoxicity, dose response, cytotoxicity control for MgcRacGAP inhibitor project (AID 624300)
[4] = molecular target: T2, Rac GTPase-activating protein 1 (Homo sapiens, UniProt Q9H0H5); test: MgcRacGAP GTPase-activating activity inhibitors, confirmation, biochemical, ADP Hunter fluorescence, primary and confirmatory (AID 624330)
T2 sequence (Q9H0H5 whole entry): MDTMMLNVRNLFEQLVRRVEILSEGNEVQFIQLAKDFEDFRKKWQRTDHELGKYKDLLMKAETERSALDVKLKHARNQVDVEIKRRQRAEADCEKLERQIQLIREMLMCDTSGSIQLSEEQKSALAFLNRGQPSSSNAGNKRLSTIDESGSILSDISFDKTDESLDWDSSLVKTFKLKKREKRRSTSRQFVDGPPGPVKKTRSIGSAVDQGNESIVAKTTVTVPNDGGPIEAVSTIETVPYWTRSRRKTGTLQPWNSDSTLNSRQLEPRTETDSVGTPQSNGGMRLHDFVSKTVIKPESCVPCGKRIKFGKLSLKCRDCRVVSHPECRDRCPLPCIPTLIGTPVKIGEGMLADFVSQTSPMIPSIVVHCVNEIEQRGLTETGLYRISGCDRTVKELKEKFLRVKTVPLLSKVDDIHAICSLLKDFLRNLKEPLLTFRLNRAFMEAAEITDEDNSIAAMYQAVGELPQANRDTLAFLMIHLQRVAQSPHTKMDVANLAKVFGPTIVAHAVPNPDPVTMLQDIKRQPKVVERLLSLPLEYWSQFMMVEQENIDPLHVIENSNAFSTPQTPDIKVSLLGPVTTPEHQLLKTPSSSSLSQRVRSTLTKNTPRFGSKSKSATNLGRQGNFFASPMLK

[5] = SAR analysis of small molecule activators of Apaf-1 using a LZ-Caspase-9/Caspase-3 Fluorescent Selectivity assay - Set 2.; details: read-out: EC50_Mean
[6] = molecular target: T3, Apoptotic protease-activating factor 1 (Homo sapiens, UniProt O14727); test: SAR analysis of small molecule Activators of Apaf-1 in a Fluorescent assay - set 2.; details: read-out: EC50_Mean
T3 sequence (O14727 whole entry): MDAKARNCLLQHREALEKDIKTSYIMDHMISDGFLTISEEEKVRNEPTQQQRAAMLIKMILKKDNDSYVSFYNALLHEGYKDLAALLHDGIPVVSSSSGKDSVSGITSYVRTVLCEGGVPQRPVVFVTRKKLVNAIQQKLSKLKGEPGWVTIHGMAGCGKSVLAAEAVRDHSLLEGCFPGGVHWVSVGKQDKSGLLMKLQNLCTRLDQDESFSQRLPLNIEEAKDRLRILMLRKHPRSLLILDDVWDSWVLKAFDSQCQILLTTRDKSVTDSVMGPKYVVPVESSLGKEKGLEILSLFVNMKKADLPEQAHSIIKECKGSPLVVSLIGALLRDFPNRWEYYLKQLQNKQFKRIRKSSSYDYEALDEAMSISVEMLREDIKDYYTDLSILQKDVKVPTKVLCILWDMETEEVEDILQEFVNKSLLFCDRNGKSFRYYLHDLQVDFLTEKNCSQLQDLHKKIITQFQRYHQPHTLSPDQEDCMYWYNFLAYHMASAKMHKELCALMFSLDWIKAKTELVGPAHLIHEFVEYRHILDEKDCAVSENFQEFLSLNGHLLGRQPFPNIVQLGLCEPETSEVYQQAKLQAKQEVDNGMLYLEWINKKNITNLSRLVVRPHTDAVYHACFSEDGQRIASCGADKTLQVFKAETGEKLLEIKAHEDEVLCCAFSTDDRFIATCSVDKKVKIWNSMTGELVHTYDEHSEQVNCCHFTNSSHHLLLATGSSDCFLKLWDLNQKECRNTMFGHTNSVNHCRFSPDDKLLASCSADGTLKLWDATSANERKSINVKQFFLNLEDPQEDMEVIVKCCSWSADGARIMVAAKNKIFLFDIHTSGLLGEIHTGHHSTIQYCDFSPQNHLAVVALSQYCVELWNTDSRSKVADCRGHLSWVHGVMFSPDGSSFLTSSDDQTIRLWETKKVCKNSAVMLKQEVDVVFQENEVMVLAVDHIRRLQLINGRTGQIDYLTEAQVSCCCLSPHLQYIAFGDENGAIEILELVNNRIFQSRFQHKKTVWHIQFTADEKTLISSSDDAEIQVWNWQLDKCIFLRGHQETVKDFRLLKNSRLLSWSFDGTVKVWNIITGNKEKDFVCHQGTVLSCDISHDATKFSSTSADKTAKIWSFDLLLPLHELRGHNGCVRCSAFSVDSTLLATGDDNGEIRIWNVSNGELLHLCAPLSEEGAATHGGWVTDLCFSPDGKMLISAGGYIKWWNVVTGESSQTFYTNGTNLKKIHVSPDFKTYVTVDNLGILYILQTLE

Row | EC50 [5] | EC50 [6] | SMILES | IC50 (Vero) | IC50 [1] | IC50 [2] | CC50 [3] | IC50 [4]
1 | – | – | CCN(CC)CCCC(C)NC(=O)c1c(NC(=O)c2ccccc2)sc2c1CCCC2 (configuration not stated) | 21.4 µM (active) | 2.41 µM (active) | 3.36 µM (active) | 100 µM (active) | 144 µM (active)
2 | > 100 µM (inactive) | > 100 µM (inactive) | COc1ccccc1C1=NOC(C(=O)O)C1 (configuration not stated) | – | – | – | – | –
